Data reported in patent US20250145665A1, “MACROCYCLIC PEPTIDES USEFUL AS MODULATORS OF TNF ALPHA” (Bristol-Myers Squibb Company, priority 2023, published 2025).
Starred links: 1 amine or outer side, 2 acyl side, 3 side chain; linkers in the order of their positions; H or OH if unused. Positions of bridges follow the written chain, without caps; N, C: chain ends. Non-standard residues stand in square brackets, D forms with d. Residues, ends and D or L forms follow the SMILES beside them. *: point of attachment. Bip(4'-NHCO-C6H4-3-CH2COOH) = N[C@@H](Cc1ccc(-c2ccc(NC(=O)c3cccc(CC(=O)O)c3)cc2)cc1)C(=O)O; dArg(Nω-CH2C6H4-3-CH2Gua) = N=C(N)NCc1cccc(CNC(=N)NCCC[C@@H](N)C(=O)O)c1; Bip(4'-NHBz) = N[C@@H](Cc1ccc(-c2ccc(NC(=O)c3ccccc3)cc2)cc1)C(=O)O; Bip(4'-NH) = O=C([C@H](Cc1ccc(-c2ccc(N[*:3])cc2)cc1)N[*:1])[*:2]; dArg(ω-Bn(3-CH2OH)) = N=C(NCCC[C@@H](N)C(=O)O)NCc1cccc(CO)c1; Indazole3carbonyl(1-CH2COOH) = O=C(O)Cn1nc(C(=O)*)c2ccccc21; Bip(4'-COOH) = N[C@@H](Cc1ccc(-c2ccc(C(=O)O)cc2)cc1)C(=O)O; X33 = N=C(NCCC[C@@H](N[*:1])C(=O)[*:2])NCc1cccc(CC(=O)O)c1; X53 = CC(C)(C)n1nnc(CNC(=N)NCCC[C@@H](N[*:1])C(=O)[*:2])n1; X87 = N=C(NCCC[C@@H](N[*:1])C(=O)[*:2])NCc1ccc(C(=O)O)cc1; X80 = N=C(NCCC[C@@H](N[*:1])C(=O)[*:2])NCc1ccc2c(c1)OCO2; X44 = N#Cc1ccc(CNC(=N)NCCC[C@@H](N[*:1])C(=O)[*:2])cc1; X28 = N=C(NCCC[C@@H](N[*:1])C(=O)[*:2])NCc1ccc(CN)cc1; X7 = N=C(NCCC[C@@H](N[*:1])C(=O)[*:2])NCc1ccc2occc2c1; X26 = N=C(NCCC[C@@H](N[*:1])C(=O)[*:2])NCc1ccc(O)cc1; Ala(morpholin-4-yl) = N[C@@H](CN1CCOCC1)C(=O)O; Benzoyl(4-OCH2COOH) = O=C(O)COc1ccc(C(=O)*)cc1; Bip = N[C@@H](Cc1ccc(-c2ccccc2)cc1)C(=O)O; Cha = N[C@@H](CC1CCCCC1)C(=O)O; X62 = COC(=O)Cc1cccc(C(=O)*)c1; Chg = N[C@H](C(=O)O)C1CCCCC1; Tle = CC(C)(C)[C@H](N)C(=O)O; Sar = CNCC(=O)O

What follows are molecules tested against TNFα (Homo sapiens, UniProt P01375) (assay: TNF-Induced HEK-Blue Assay). Conditions: not given.
Type: cell-based

Chain of TNFα (P01375 77-233 limits assumed): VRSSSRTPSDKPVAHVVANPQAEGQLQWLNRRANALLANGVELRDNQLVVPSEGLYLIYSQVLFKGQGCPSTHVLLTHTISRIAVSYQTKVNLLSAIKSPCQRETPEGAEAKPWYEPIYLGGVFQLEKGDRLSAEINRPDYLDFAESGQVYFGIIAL

Structure (SMILES) | IC50 [nM]
CC(C)C[C@@H]1NC(=O)[C@H](CCCNC(=N)N)NC(=O)[C@H](C(C)C)NC(=O)[C@@H]2CCCN2C(=O)[C@H](C(C)C)NC(=O)[C@@H](CCCNC(=N)NCc2ccc(CN)cc2)NC(=O)[C@H](CC(=O)O)NC(=O)[C@@H]2CCCN2C(=O)CN(C)C(=O)[C@H](Cc2ccc(-c3ccc(NC(=O)c4nn(CC(=O)O)c5ccccc45)cc3)cc2)NC(=O)[C@H](Cc2ccc(-c3ccccc3)cc2)NC(=O)[C@H](CN2CCOCC2)NC(=O)CSC[C@@H](C(=O)NCC(N)=O)NC1=O [Example 501] ({CH2CO}-[Ala(morpholin-4-yl)][Bip][Bip(4'-NH)](Indazole3carbonyl(1-CH2COOH))[Sar]PD[X28]VPVRLCG-NH2; thioether N-13) | 50 to 200
CC[C@H](C)[C@@H]1NC(=O)[C@@H](CCCNC(=N)N)NC(=O)[C@H](CC(=O)O)NC(=O)[C@H](Cc2cnc[nH]2)NC(=O)CN(C)C(=O)[C@H](Cc2ccc(-c3ccc(NC(=O)c4cccc(CC(=O)OC)c4)cc3)cc2)NC(=O)[C@H](Cc2ccc(-c3ccccc3)cc2)NC(=O)[C@H](C(C)(C)C)NC(=O)CSC[C@@H](C(=O)NCC(N)=O)NC(=O)[C@H](CC(C)C)NC(=O)[C@H](Cc2c[nH]cn2)NC(=O)[C@H](C(C)C)NC(=O)[C@@H]2CCCN2C1=O [Example 502] ({CH2CO}-[Tle][Bip][Bip(4'-NH)](X62)[Sar]HD[dR]IPVHLCG-NH2; thioether N-13) | < 50
CC[C@H](C)[C@@H]1NC(=O)[C@@H](CCCNC(=N)N)NC(=O)[C@H](CC(=O)O)NC(=O)[C@H](Cc2cnc[nH]2)NC(=O)CN(C)C(=O)[C@H](Cc2ccc(-c3ccc(NC(=O)c4cccc(CC(=O)OC)c4)cc3)cc2)NC(=O)[C@H](Cc2ccc(-c3ccc(C(=O)O)cc3)cc2)NC(=O)[C@H](CC2CCCCC2)NC(=O)CSC[C@@H](C(=O)NCC(N)=O)NC(=O)[C@H](CC(C)C)NC(=O)[C@H](Cc2c[nH]cn2)NC(=O)[C@H](C(C)C)NC(=O)[C@@H]2CCCN2C1=O [Example 503] ({CH2CO}-[Cha][Bip(4'-COOH)][Bip(4'-NH)](X62)[Sar]HD[dR]IPVHLCG-NH2; thioether N-13) | < 50
CC(C)C[C@@H]1NC(=O)[C@H](CCCNC(=N)N)NC(=O)[C@H](C(C)C)NC(=O)[C@@H]2CCCN2C(=O)[C@H](C(C)C)NC(=O)[C@@H](CCCNC(=N)NCc2ccc(C#N)cc2)NC(=O)[C@H](CC(=O)O)NC(=O)[C@@H]2CCCN2C(=O)CN(C)C(=O)[C@H](Cc2ccc(-c3ccc(NC(=O)c4nn(CC(=O)O)c5ccccc45)cc3)cc2)NC(=O)[C@H](Cc2ccc(-c3ccccc3)cc2)NC(=O)[C@H](CN2CCOCC2)NC(=O)CSC[C@@H](C(=O)NCC(N)=O)NC1=O [Example 506] ({CH2CO}-[Ala(morpholin-4-yl)][Bip][Bip(4'-NH)](Indazole3carbonyl(1-CH2COOH))[Sar]PD[X44]VPVRLCG-NH2; thioether N-13) | < 50
CC(C)C[C@@H]1NC(=O)[C@H](CCCNC(=N)N)NC(=O)[C@H](C(C)C)NC(=O)[C@@H]2CCCN2C(=O)[C@H](C(C)C)NC(=O)[C@@H](CCCNC(=N)NCc2ccc(C(=O)O)cc2)NC(=O)[C@H](CC(=O)O)NC(=O)[C@@H]2CCCN2C(=O)CN(C)C(=O)[C@H](Cc2ccc(-c3ccc(NC(=O)c4nn(CC(=O)O)c5ccccc45)cc3)cc2)NC(=O)[C@H](Cc2ccc(-c3ccccc3)cc2)NC(=O)[C@H](CN2CCOCC2)NC(=O)CSC[C@@H](C(=O)NCC(N)=O)NC1=O [Example 507] ({CH2CO}-[Ala(morpholin-4-yl)][Bip][Bip(4'-NH)](Indazole3carbonyl(1-CH2COOH))[Sar]PD[X87]VPVRLCG-NH2; thioether N-13) | < 50
CC(C)C[C@@H]1NC(=O)[C@H](CCCNC(=N)N)NC(=O)[C@H](C(C)C)NC(=O)[C@@H]2CCCN2C(=O)[C@H](C(C)C)NC(=O)[C@@H](CCCNC(=N)NCc2ccc(O)cc2)NC(=O)[C@H](CC(=O)O)NC(=O)[C@@H]2CCCN2C(=O)CN(C)C(=O)[C@H](Cc2ccc(-c3ccc(NC(=O)c4nn(CC(=O)O)c5ccccc45)cc3)cc2)NC(=O)[C@H](Cc2ccc(-c3ccccc3)cc2)NC(=O)[C@H](CN2CCOCC2)NC(=O)CSC[C@@H](C(=O)NCC(N)=O)NC1=O [Example 508] ({CH2CO}-[Ala(morpholin-4-yl)][Bip][Bip(4'-NH)](Indazole3carbonyl(1-CH2COOH))[Sar]PD[X26]VPVRLCG-NH2; thioether N-13) | < 50
CC(C)C[C@@H]1NC(=O)[C@H](CCCNC(=N)N)NC(=O)[C@H](C(C)C)NC(=O)[C@@H]2CCCN2C(=O)[C@H](C(C)C)NC(=O)[C@@H](CCCNC(=N)NCc2ccc3c(c2)OCO3)NC(=O)[C@H](CC(=O)O)NC(=O)[C@@H]2CCCN2C(=O)CN(C)C(=O)[C@H](Cc2ccc(-c3ccc(NC(=O)c4nn(CC(=O)O)c5ccccc45)cc3)cc2)NC(=O)[C@H](Cc2ccc(-c3ccccc3)cc2)NC(=O)[C@H](CN2CCOCC2)NC(=O)CSC[C@@H](C(=O)NCC(N)=O)NC1=O [Example 509] ({CH2CO}-[Ala(morpholin-4-yl)][Bip][Bip(4'-NH)](Indazole3carbonyl(1-CH2COOH))[Sar]PD[X80]VPVRLCG-NH2; thioether N-13) | < 50
CC(C)C[C@@H]1NC(=O)[C@H](CCCNC(=N)N)NC(=O)[C@H](C(C)C)NC(=O)[C@@H]2CCCN2C(=O)[C@H](C(C)C)NC(=O)[C@@H](CCCNC(=N)NCc2nnn(C(C)(C)C)n2)NC(=O)[C@H](CC(=O)O)NC(=O)[C@@H]2CCCN2C(=O)CN(C)C(=O)[C@H](Cc2ccc(-c3ccc(NC(=O)c4nn(CC(=O)O)c5ccccc45)cc3)cc2)NC(=O)[C@H](Cc2ccc(-c3ccccc3)cc2)NC(=O)[C@H](CN2CCOCC2)NC(=O)CSC[C@@H](C(=O)NCC(N)=O)NC1=O [Example 510] ({CH2CO}-[Ala(morpholin-4-yl)][Bip][Bip(4'-NH)](Indazole3carbonyl(1-CH2COOH))[Sar]PD[X53]VPVRLCG-NH2; thioether N-13) | < 50
CC(C)C[C@@H]1NC(=O)[C@H](CCCNC(=N)N)NC(=O)[C@H](C(C)C)NC(=O)[C@@H]2CCCN2C(=O)[C@H](C(C)C)NC(=O)[C@@H](CCCNC(=N)NCc2cccc(CC(=O)O)c2)NC(=O)[C@H](CC(=O)O)NC(=O)[C@@H]2CCCN2C(=O)CN(C)C(=O)[C@H](Cc2ccc(-c3ccc(NC(=O)c4nn(CC(=O)O)c5ccccc45)cc3)cc2)NC(=O)[C@H](Cc2ccc(-c3ccccc3)cc2)NC(=O)[C@H](CN2CCOCC2)NC(=O)CSC[C@@H](C(=O)NCC(N)=O)NC1=O [Example 511] ({CH2CO}-[Ala(morpholin-4-yl)][Bip][Bip(4'-NH)](Indazole3carbonyl(1-CH2COOH))[Sar]PD[X33]VPVRLCG-NH2; thioether N-13) | 50 to 200
CC(C)C[C@@H]1NC(=O)[C@H](CCCNC(=N)N)NC(=O)[C@H](C(C)C)NC(=O)[C@@H]2CCCN2C(=O)[C@H](C(C)C)NC(=O)[C@@H](CCCNC(=N)NCc2cccc(CNC(=N)N)c2)NC(=O)[C@H](CC(=O)O)NC(=O)[C@@H]2CCCN2C(=O)CN(C)C(=O)[C@H](Cc2ccc(-c3ccc(NC(=O)c4nn(CC(=O)O)c5ccccc45)cc3)cc2)NC(=O)[C@H](Cc2ccc(-c3ccccc3)cc2)NC(=O)[C@H](CN2CCOCC2)NC(=O)CSC[C@@H](C(=O)NCC(N)=O)NC1=O [Example 512] ({CH2CO}-[Ala(morpholin-4-yl)][Bip][Bip(4'-NH)](Indazole3carbonyl(1-CH2COOH))[Sar]PD[dArg(Nω-CH2C6H4-3-CH2Gua)]VPVRLCG-NH2; thioether N-13) | < 50
CC(C)C[C@@H]1NC(=O)[C@H](Cc2c[nH]cn2)NC(=O)[C@H](C2CCCCC2)NC(=O)[C@@H]2CCCN2C(=O)[C@H](C(C)C)NC(=O)[C@@H](CCCNC(=N)N)NC(=O)[C@H](CC(=O)O)NC(=O)[C@H](Cc2cnc[nH]2)NC(=O)CN(C)C(=O)[C@H](Cc2ccc(-c3ccc(NC(=O)c4ccccc4)cc3)cc2)NC(=O)[C@H](Cc2ccc(-c3ccccc3)cc2)NC(=O)[C@H](CC2CCCCC2)NC(=O)CSC[C@@H](C(=O)NCC(N)=O)NC1=O [Example 513] ({CH2CO}-[Cha][Bip][Bip(4'-NHBz)][Sar]HD[dR]VP[Chg]HLCG-NH2; thioether N-13) | < 50

Same assay, conditions: HEK-Blue-CD40L cells, NF-kB-driven secreted alkaline phosphatase reporter; TNFα 0.5 ng/ml; 18 h; read-out: TNF induced HEK-Blue assay IC50 value

Structure (SMILES) | IC50 [nM]
CC(C)C[C@@H]1NC(=O)[C@H](CCCNC(=N)N)NC(=O)[C@H](C(C)C)NC(=O)[C@@H]2CCCN2C(=O)[C@H](C(C)C)NC(=O)[C@@H](CCCNC(=N)NCc2cccc(CO)c2)NC(=O)[C@H](CC(=O)O)NC(=O)[C@@H]2CCCN2C(=O)CN(C)C(=O)[C@H](Cc2ccc(-c3ccc(NC(=O)c4ccc(OCC(=O)O)cc4)cc3)cc2)NC(=O)[C@H](Cc2ccc(-c3ccccc3)cc2)NC(=O)[C@H](CN2CCOCC2)NC(=O)CSC[C@@H](C(=O)NCC(N)=O)NC1=O [Example 500] ({CH2CO}-[Ala(morpholin-4-yl)][Bip][Bip(4'-NH)](Benzoyl(4-OCH2COOH))[Sar]PD[dArg(ω-Bn(3-CH2OH))]VPVRLCG-NH2; thioether N-13) | < 50
CC[C@H](C)[C@@H]1NC(=O)[C@@H](CCCNC(=N)NCc2cccc(CO)c2)NC(=O)[C@H](CC(=O)O)NC(=O)[C@H](Cc2cnc[nH]2)NC(=O)CN(C)C(=O)[C@H](Cc2ccc(-c3ccc(NC(=O)c4cccc(CC(=O)O)c4)cc3)cc2)NC(=O)[C@H](Cc2ccc(-c3ccccc3)cc2)NC(=O)[C@H](CC2CCCCC2)NC(=O)CSC[C@@H](C(=O)NCC(N)=O)NC(=O)[C@H](CC(C)C)NC(=O)[C@H](Cc2c[nH]cn2)NC(=O)[C@H](C(C)C)NC(=O)[C@@H]2CCCN2C1=O [Example 504] ({CH2CO}-[Cha][Bip][Bip(4'-NHCO-C6H4-3-CH2COOH)][Sar]HD[dArg(ω-Bn(3-CH2OH))]IPVHLCG-NH2; thioether N-13) | < 50
CC[C@H](C)[C@@H]1NC(=O)[C@@H](CCCNC(=N)NCc2ccc3occc3c2)NC(=O)[C@H](CC(=O)O)NC(=O)[C@H](Cc2cnc[nH]2)NC(=O)CN(C)C(=O)[C@H](Cc2ccc(-c3ccc(NC(=O)c4cccc(CC(=O)O)c4)cc3)cc2)NC(=O)[C@H](Cc2ccc(-c3ccccc3)cc2)NC(=O)[C@H](CC2CCCCC2)NC(=O)CSC[C@@H](C(=O)NCC(N)=O)NC(=O)[C@H](CC(C)C)NC(=O)[C@H](Cc2c[nH]cn2)NC(=O)[C@H](C(C)C)NC(=O)[C@@H]2CCCN2C1=O [Example 505] ({CH2CO}-[Cha][Bip][Bip(4'-NHCO-C6H4-3-CH2COOH)][Sar]HD[X7]IPVHLCG-NH2; thioether N-13) | 50 to 200
